{"source": "patent US20250242086A1", "about": "“THERAPEUTIC BIOMATERIAL THAT ATTENUATES THE FOREIGN BODY RESPONSE” (The Regents of the University of Colorado, a body corporate, priority 2022, published 2025)", "key": {"[1]": {"tested_on": "J774A.1 macrophage cell line", "assay": "Caspase-Glo 8 caspase activity assay in J774A.1 macrophages with FasL with or without small molecule inhibitor", "assay_type": "cell-based", "experimental": "FIG. 11 provides two illustrations depicting in vitro assessment of cell behavior. (A) In Vitro Experimental Protocol: J774A.1 macrophage cell line was incubated overnight at 20,000 cells/well and treated with lipopolysaccharide (LPS) for 4 hours or 3days. Exogenous FasL was then added to initiate the extrinsic apoptotic pathway for 6 hours before caspase activity (Caspase-Glo3/7) and metabolic activity (alamarBlue) assays were performed to study the differences in cell behavior after exposure to each stimulant. (B) In Vitro Experimental Protocol for Small Molecule Testing. J774A. 1 macrophage cell line was incubated overnight at 20,000 cells/well and cultured […] for 3 days. Exogenous FasL was then added to initiate the extrinsic apoptotic pathway with or without a small molecule inhibitor for 6 hours before a caspase activity (Caspase-Glo8) assay was performed to study the differences in cell behavior after exposure. […] J774A.1 macrophage cell line was incubated overnight at 20,000 cells/well and cultured in complete media for 3 days. Exogenous FasL was then added to initiate the extrinsic apoptotic pathway with or without a small molecule inhibitor for 6 hours before a caspase activity (Caspase-Glo 8) assay was performed to study the differences in cell behavior after exposure. Lastly, tests were performed utilizing a small molecule inhibitor (YM155) of CFLIP. […]"}, "[2]": {"tested_on": "cFLIP in cancer cells", "conditions": "cancer cells versus non-cancerous cells; cited from earlier work"}, "[3]": {"tested_on": "macrophages", "conditions": "in vitro; cited from earlier work"}}}
{"smiles": "COCCn1c2c([n+](Cc3cnccn3)c1C)C(=O)c1ccccc1C2=O", "note": "[YM155]", "values": [{"measurement": "fold change in caspase 8 activity relative to untreated control", "setting": "[1]; 100 ng/mL small molecule, FasL 6 hours, J774A.1 cells cultured 3 days, N=3", "value": "about 23 fold"}, {"measurement": "effect on caspase 8 activity (qualitative)", "setting": "[1]; small molecule exposure, J774A.1 cells, FasL", "value": "increased caspase 8 activity"}, {"measurement": "cFLIP inhibition in cancer cells and induction of their death", "setting": "[2]", "value": "inhibited cFLIP in cancer cells and induced their death without affecting non-cancerous cells"}, {"measurement": "effect on anti-apoptotic programming in macrophages", "setting": "[3]", "value": "reversed anti-apoptotic programming in macrophages in vitro"}]}
